Experimental data reported in patent US20230226008A1 (Massachusetts Eye and Ear Infirmary, priority 2020, published 2023).

Experiments:
P-gp = P-gp (Homo sapiens, UniProt P08183); details: literature reference 29; cited from earlier work
[1] = system: organotypic nasal polyp explants

P-gp, sequence (P08183 whole entry): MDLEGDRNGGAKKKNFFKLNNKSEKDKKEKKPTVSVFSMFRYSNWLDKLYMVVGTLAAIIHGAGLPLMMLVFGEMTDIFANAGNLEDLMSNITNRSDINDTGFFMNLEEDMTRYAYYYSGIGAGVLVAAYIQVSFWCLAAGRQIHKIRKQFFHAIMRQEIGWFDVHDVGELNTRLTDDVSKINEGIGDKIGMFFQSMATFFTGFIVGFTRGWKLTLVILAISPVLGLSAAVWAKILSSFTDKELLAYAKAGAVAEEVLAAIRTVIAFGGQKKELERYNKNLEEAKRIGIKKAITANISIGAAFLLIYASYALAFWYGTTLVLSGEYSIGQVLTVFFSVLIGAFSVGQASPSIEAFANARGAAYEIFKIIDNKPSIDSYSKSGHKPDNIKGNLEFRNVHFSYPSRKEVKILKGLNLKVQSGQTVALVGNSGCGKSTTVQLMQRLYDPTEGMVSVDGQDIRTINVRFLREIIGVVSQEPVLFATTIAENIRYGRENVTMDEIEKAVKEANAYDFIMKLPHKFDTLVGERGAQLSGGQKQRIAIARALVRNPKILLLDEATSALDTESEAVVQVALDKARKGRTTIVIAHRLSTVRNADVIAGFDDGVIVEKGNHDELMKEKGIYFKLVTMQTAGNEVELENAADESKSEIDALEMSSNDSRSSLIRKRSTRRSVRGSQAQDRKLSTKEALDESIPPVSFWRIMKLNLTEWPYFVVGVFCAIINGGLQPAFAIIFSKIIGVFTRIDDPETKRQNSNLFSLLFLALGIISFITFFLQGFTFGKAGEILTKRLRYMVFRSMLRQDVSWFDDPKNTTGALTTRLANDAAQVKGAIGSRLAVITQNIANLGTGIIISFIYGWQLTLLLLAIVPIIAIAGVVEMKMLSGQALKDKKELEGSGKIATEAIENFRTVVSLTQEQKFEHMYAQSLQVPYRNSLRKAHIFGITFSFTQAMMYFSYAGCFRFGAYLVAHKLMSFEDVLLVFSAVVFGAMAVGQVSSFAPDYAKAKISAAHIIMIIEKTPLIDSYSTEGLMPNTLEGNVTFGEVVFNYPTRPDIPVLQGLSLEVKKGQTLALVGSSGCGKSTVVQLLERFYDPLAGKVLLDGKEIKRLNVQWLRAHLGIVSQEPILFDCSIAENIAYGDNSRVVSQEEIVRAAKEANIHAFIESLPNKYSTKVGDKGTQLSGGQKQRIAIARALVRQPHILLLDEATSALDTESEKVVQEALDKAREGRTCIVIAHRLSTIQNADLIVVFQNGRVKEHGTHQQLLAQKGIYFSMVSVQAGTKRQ

| SMILES | affinity for P-gp (P-gp) | tissue mometasone retention in polyps versus lower P-gp expressing turbinates [1] | reduction in mometasone retention between the lowest and highest P-gp expressing polyp explants ([1]; human, not told, 60 min) [fold] | P-gp substrate status ([1]; not told) |
| --- | --- | --- | --- | --- |
| CCCC1O[C@@H]2C[C@H]3[C@@H]4CCC5=CC(=O)C=C[C@]5(C)[C@H]4[C@@H](O)C[C@]3(C)[C@]2(C(=O)CO)O1 (stereo partly shown) [budesonide] | high affinity |  |  |  |
| C[C@@H]1C[C@H]2[C@@H]3CCC4=CC(=O)C=C[C@]4(C)[C@@]3(Cl)[C@@H](O)C[C@]2(C)[C@@]1(OC(=O)c1ccco1)C(=O)CCl [mometasone, [(8S,9R,10S,11S,13S,14S,16R,17R)-9-chloro-17-(2-chloroacetyl)-11-hydroxy-10,13,16-trimethyl-3-oxo-6,7,8,11,12,14,15,16-octahydrocyclopenta[a]phenanthren-17-yl]furan-2-carboxylate] |  | significantly lower | ~6 | substrate of P-gp |
